# Assay results from ChEMBL document CHEMBL1201862, “PubChem BioAssay data set” (2004).
#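 Assay format: 96-well plates, 48-hour exposure. Abbreviation: GI50, concentration required for 50% inhibition of growth.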 Calls of active or inactive are those of the source. Cut-off read from the data, not from the text of the source: active = GI50 up to about 1.1 µM and inactive = higher.
# Key:
# Experiment in all cases: DTP human tumour cell line panel, 48 h
# DMS-273 = tested on: DMS-273
# KM-20L2 = tested on: KM-20L2
# DLD-1 = tested on: DLD-1
# M19-MEL = tested on: M19-MEL
# DMS-114 = tested on: DMS-114
# SNB-78 = tested on: SNB-78
# LXFL 529 = tested on: LXFL 529
# HOP-18 = tested on: HOP-18
# RXF 631 = tested on: RXF 631
SMILES,GI50 (DMS-273),GI50 (KM-20L2),GI50 (DLD-1),GI50 (M19-MEL),GI50 (DMS-114),GI50 (SNB-78),GI50 (LXFL 529),GI50 (HOP-18),GI50 (RXF 631)
O=C(Nc1cccc(C(F)(F)F)c1)C(=O)C(C(=O)c1ccc2ccccc2c1)C1OC(=O)c2ccccc21 (configuration not stated),6.3 µM (inactive),15.8 µM (inactive),6.35 µM (inactive),8.51 µM (inactive),6.89 µM (inactive),7.45 µM (inactive),4.82 µM (inactive),–,–
Cc1ccc(-c2cc(-c3ccco3)c(C#N)c(O)n2)cc1,> 100 µM (inactive),> 100 µM (inactive),> 100 µM (inactive),> 100 µM (inactive),–,> 100 µM (inactive),> 100 µM (inactive),13.3 µM (inactive),–
O=c1oc(=O)c2oc3ccccc3oc1=2,> 100 µM (inactive),> 100 µM (inactive),> 100 µM (inactive),> 100 µM (inactive),> 100 µM (inactive),–,> 100 µM (inactive),> 100 µM (inactive),–
CC(C)c1cccc(C(C)C)c1/N=C(/N)C#N,> 43 µM (inactive),> 100 µM (inactive),37 µM (inactive),> 60 µM (inactive),29.9 µM (inactive),99.1 µM (inactive),> 67.1 µM (inactive),> 86.1 µM (inactive),> 100 µM (inactive)
FC(F)(F)c1cccc(/C=N/C23CC4CC(CC(C4)C2)C3)c1,> 100 µM (inactive),> 100 µM (inactive),–,27.5 µM (inactive),> 100 µM (inactive),> 100 µM (inactive),–,–,–
CN1CCC23c4c5ccc(O)c4OC2C(=NN=C2CCC4(O)C6Cc7ccc(O)c8c7C4(CCN6C)C2O8)CCC3(O)C1C5 (configuration not stated),> 100 µM (inactive),> 100 µM (inactive),> 100 µM (inactive),> 100 µM (inactive),> 100 µM (inactive),–,> 100 µM (inactive),> 100 µM (inactive),> 100 µM (inactive)
C[C@@H]1[C@@H]2[C@@H](C=C3C4CCC5Cc6nc7c(nc6C[C@@]5(C)C4C[C@H](O)[C@]32CO)CC2CCC3C4=C[C@H]5O[C@@]6(OC(C)(CO)C[C@@H]6O)[C@H](C)[C@@]5(O)[C@]4(C)[C@@H](O)CC3[C@]2(C)C7)O[C@]12CCC(C)(C)O2 (some centres not stated),0.000826 µM (active),0.0233 µM (active),0.822 µM (active),0.966 µM (active),–,0.00486 µM (active),0.0118 µM (active),0.401 µM (active),–
c1cnc2c(c1)-n1cccc1C1(CCCCC1)NN2,46.5 µM (inactive),–,–,–,53.1 µM (inactive),–,–,8.18 µM (inactive),–
Cc1ccc(S(=O)(=O)c2c(N)n(CCN(C)C)c3nc4ccccc4nc23)cc1,> 100 µM (inactive),–,> 100 µM (inactive),> 100 µM (inactive),> 100 µM (inactive),> 100 µM (inactive),> 100 µM (inactive),> 100 µM (inactive),–
CNC(=O)OCc1nc(SC2CCCCO2)n(C)c1COC(=O)NC (configuration not stated),> 100 µM (inactive),> 100 µM (inactive),> 100 µM (inactive),> 100 µM (inactive),> 100 µM (inactive),> 100 µM (inactive),> 100 µM (inactive),> 100 µM (inactive),> 100 µM (inactive)
COC(=O)C(CCC#N)(CCC#N)C(=O)OC,> 100 µM (inactive),> 100 µM (inactive),–,> 100 µM (inactive),> 100 µM (inactive),–,> 100 µM (inactive),–,–
Cc1cc2c(s1)C(=O)c1sccc1C2=O,1.24 µM (inactive),2.46 µM (inactive),1.64 µM (inactive),–,–,–,1.19 µM (inactive),1.48 µM (inactive),–
CC(=O)O[C@H]1C(N(C)C(=O)c2ccccc2)CC[C@]2(C)C3CC[C@@]4(C)C(CC(O)[C@@H]4C(C)N(C)C)[C@@H]3CCC12 (some centres not stated),> 100 µM (inactive),> 100 µM (inactive),> 100 µM (inactive),> 100 µM (inactive),> 100 µM (inactive),> 100 µM (inactive),> 100 µM (inactive),> 100 µM (inactive),–
COc1cc2c(c(OC)c1O)-c1ccc(SC)c(=O)cc1C(NC(C)=O)CC2 (configuration not stated),< 0.01 µM (active),0.0129 µM (active),0.0597 µM (active),< 0.01 µM (active),< 0.01 µM (active),< 0.01 µM (active),< 0.01 µM (active),–,–
CN(C)CCNC(=O)c1cccc2ccc(-c3ccc(O)cc3)nc12,0.743 µM (active),6.68 µM (inactive),2.47 µM (inactive),1.9 µM (inactive),2.08 µM (inactive),4.43 µM (inactive),–,2.81 µM (inactive),–
Nc1c(-c2ccc(Cl)cc2Cl)[n+]([O-])c2ccccc2[n+]1[O-],> 100 µM (inactive),> 100 µM (inactive),> 100 µM (inactive),> 100 µM (inactive),> 100 µM (inactive),> 100 µM (inactive),> 100 µM (inactive),76 µM (inactive),> 100 µM (inactive)
CCN(CC)CCn1c2ccccc2c(=O)c2c(O)ccc(O)c21,99.1 µM (inactive),> 100 µM (inactive),–,–,18.5 µM (inactive),23.4 µM (inactive),19.9 µM (inactive),–,> 45.7 µM (inactive)
O=C1/C(=C(\Nc2ccccc2)c2ccccc2)C=NN1c1ccccc1,61.8 µM (inactive),> 100 µM (inactive),> 100 µM (inactive),–,50.6 µM (inactive),> 100 µM (inactive),> 100 µM (inactive),< 0.01 µM (active),> 100 µM (inactive)
C=CCNC(=O)NCCCC(NC(C)=O)C(=O)NCc1ccccc1 (configuration not stated),> 100 µM (inactive),> 100 µM (inactive),–,> 100 µM (inactive),–,–,> 100 µM (inactive),> 100 µM (inactive),> 100 µM (inactive)
OCCCNc1ccnc2cc(Cl)ccc12,–,> 100 µM (inactive),> 100 µM (inactive),> 100 µM (inactive),> 100 µM (inactive),> 100 µM (inactive),> 100 µM (inactive),> 100 µM (inactive),–
CCOC(=O)c1sc2c(sc(=O)n2-c2ccccc2)c1O,29.4 µM (inactive),> 100 µM (inactive),46.3 µM (inactive),> 100 µM (inactive),98.9 µM (inactive),> 100 µM (inactive),> 100 µM (inactive),> 100 µM (inactive),58.6 µM (inactive)
O=C(O)[C@@H](NS(=O)(=O)c1ccc2ccccc2c1)c1ccccc1,> 100 µM (inactive),> 100 µM (inactive),> 100 µM (inactive),> 100 µM (inactive),–,–,> 100 µM (inactive),> 100 µM (inactive),> 100 µM (inactive)
CN1C(=O)N(C)C2(O)c3ccccc3C(=O)C12O (configuration not stated),> 100 µM (inactive),> 100 µM (inactive),> 100 µM (inactive),> 100 µM (inactive),> 100 µM (inactive),> 100 µM (inactive),> 100 µM (inactive),> 100 µM (inactive),> 100 µM (inactive)
